The results in this text go back to patent US20130267494A1, “1,4-OXAZEPANE DERIVATIVES” (priority 2010, published 2013).

Structures can show the parent of a compound that is named as a salt. Where two headings read alike, the source gives them in different places.

What all share (assay type): cell-based
The target in experiment [1] is T1, human norepinephrine transporter (Homo sapiens, UniProt P23975).
T1 construct: expressed in transfected cells
Briefly: Inhibitory action on human norepinephrine transporter ([3H]-norepinephrine uptake in CHO cells). Particulars: relative to inhibitory activity of 10 μM DMI as 100%; for inhibition at 1 µM: CHO. An outline of the steps:
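Stably transfected CHO-K1 cells plated overnight, then given test compound and [3H]-norepinephrine (20 nM final, from 200 nM) in HEPES-buffered saline with 0.5% BSA for 45 min. After PBS washes, retained radioactivity counted by scintillation. Inhibition at 10 μM or 1 μM compound expressed relative to 10 μM DMI as 100%.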

Experiment [2] has as its target T2, human dopamine transporter (Homo sapiens, UniProt Q01959).
T2 construct: expressed in transfected cells
Kind of experiment: Inhibitory action on human dopamine transporter ([3H]-dopamine uptake in CHO cells). Particulars: compound 1 μM, relative to inhibitory activity of 100 μM Nomifensine as 100%; for inhibition at 1 µM: CHO, read-out: inhibitory rate (%). An outline of the steps:
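CHO-K1 cells stably expressing human dopamine transporter, exposed to compound at 10 μM or 1 μM in HEPES-buffered saline with 0.5% BSA. [3H]-dopamine uptake measured over 60 min by scintillation counting. Activity expressed relative to 100 μM nomifensine as 100%.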

The target in experiment [3] is T3, human serotonin transporter (Homo sapiens, UniProt P31645).
T3 construct: expressed in transfected cells
Kind of experiment: Inhibitory action on human serotonin transporter ([3H]-5-hydroxytryptamine uptake in CHO cells). Particulars: compound 1 μM, relative to inhibitory activity of 10 μM Paroxetine as 100%; for inhibition at 1 µM: CHO, read-out: inhibitory rate (%). An outline of the steps: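 CHO-K1 cells stably expressing human SERT, plated overnight, took up [3H]-5-HT (diluted to 200 nM before a 1:10 addition) for 20 min in HEPES-buffered saline with glucose and 0.5% BSA; radioactivity counted by scintillation. Compounds at 10 μM or 1 μM, activity expressed relative to 10 μM paroxetine set as 100%.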

Setting [4] is: compound 1 μM, read-out: inhibitory rate (%).
Where [5] appears, read: read-out: inhibitory rate (%), compound 1 μM.

T1 sequence (P23975 whole entry): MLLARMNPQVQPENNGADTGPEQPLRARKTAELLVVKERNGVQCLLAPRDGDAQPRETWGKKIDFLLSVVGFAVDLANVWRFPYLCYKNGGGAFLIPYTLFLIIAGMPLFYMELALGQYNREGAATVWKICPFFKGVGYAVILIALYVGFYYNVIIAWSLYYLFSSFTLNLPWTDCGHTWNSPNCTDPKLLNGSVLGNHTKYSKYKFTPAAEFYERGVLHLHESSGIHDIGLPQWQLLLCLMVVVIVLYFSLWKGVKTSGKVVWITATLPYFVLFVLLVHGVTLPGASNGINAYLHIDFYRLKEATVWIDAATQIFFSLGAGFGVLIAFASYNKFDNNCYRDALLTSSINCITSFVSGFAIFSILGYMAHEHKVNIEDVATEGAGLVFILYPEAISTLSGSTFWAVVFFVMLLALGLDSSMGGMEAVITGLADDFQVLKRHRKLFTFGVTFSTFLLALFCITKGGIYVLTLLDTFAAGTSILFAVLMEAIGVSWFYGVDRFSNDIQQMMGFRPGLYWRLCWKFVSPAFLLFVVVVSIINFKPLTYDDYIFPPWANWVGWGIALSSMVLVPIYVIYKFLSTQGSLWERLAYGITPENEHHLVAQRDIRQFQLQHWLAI
T3 sequence (P31645 whole entry): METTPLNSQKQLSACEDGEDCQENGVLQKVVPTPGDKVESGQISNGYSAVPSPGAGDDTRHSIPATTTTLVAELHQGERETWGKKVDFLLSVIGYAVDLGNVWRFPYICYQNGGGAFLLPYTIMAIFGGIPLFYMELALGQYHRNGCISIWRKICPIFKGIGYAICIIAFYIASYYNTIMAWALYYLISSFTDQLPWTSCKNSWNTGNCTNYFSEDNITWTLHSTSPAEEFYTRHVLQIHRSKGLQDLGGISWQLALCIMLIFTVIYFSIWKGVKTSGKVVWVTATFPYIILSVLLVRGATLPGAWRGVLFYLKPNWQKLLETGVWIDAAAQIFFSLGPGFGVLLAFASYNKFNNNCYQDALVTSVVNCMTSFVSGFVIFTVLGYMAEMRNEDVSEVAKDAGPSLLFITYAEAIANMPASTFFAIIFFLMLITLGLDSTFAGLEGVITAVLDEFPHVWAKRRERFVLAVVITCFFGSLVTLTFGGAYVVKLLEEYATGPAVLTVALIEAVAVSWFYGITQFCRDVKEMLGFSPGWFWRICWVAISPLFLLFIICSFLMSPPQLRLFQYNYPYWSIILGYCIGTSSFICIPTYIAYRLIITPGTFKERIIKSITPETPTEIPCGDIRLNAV
T2 sequence (Q01959 whole entry): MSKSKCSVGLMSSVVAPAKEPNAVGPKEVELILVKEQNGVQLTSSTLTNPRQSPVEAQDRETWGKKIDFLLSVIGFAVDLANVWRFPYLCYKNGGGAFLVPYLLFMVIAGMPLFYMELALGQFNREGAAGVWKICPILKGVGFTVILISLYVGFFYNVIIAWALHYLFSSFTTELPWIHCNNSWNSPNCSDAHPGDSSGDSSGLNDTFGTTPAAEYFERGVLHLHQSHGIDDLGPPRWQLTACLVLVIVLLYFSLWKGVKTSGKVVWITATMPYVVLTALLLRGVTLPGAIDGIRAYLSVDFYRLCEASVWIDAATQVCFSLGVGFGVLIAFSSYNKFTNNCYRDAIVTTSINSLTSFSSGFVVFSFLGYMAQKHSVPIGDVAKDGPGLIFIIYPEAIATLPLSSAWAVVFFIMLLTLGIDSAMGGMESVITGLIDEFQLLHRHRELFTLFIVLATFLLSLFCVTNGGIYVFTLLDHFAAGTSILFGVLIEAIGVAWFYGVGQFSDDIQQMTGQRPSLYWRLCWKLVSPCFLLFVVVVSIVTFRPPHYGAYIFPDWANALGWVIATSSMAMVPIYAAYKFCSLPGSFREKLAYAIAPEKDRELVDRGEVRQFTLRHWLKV

`NS(=O)(=O)NC[C@@H]1CNCCO[C@H]1c1ccc(Cl)c(Cl)c1` [Example 35, N-{[(6S,7R)-7-(3,4-dichlorophenyl)-1,4-oxazepan-6-yl]methyl}sulfamide monohydrochloride]: the inhibition at 1 µM was 99% in experiment [1] (setting [4]), 63% in experiment [2] and 86% in experiment [3].
Regarding `O=c1ccccn1C[C@@H]1CNCCO[C@H]1c1ccc(Cl)c(F)c1` [Example 42, 1-{[(6S,7R)-7-(4-chloro-3-fluorophenyl)-1,4-oxazepan-6-yl]methyl}pyridin-2(1H)-one monohydrochloride], the values for the inhibition at 1 µM in experiment [1] (setting [4]), in experiment [2] and in experiment [3] were 102%, 47% and 87%, respectively.
As for `OC[C@@H](O)[C@@H]1OCCNC[C@H]1c1ccc(Cl)c(Cl)c1` [Example 46, (1R)-1-[(6R,7R)-6-(3,4-dichlorophenyl)-1,4-oxazepan-7-yl]ethane-1,2-diol monohydrochloride], the inhibition at 1 µM turned out to be 104% in experiment [1] (setting [4]), 27% in experiment [2] and 70% in experiment [3].
In the case of `OC[C@@]1(c2ccc(Cl)c(Cl)c2)CCNCCO1` [Example 47, [(7S)-7-(3,4-dichlorophenyl)-1,4-oxazepan-7-yl]methanol monohydrochloride], the values for the inhibition at 1 µM in experiment [1] (setting [5]), in experiment [2] and in experiment [3] were 99%, 9% and 82%, respectively.
Taken in the same sequence, the figures for `OCC1CNCCOC1c1ccc(Cl)c(Cl)c1` (stereo not drawn) [Example 48, [(6R*,7R*)-7-(3,4-dichlorophenyl)-1,4-oxazepan-6-yl]methanol monohydrochloride (retention time short)] were 99%, 22% and 98%.
As to `OCC1CNCCOC1c1ccc(Cl)c(Cl)c1` (stereo not drawn) [Example 49, [(6R*,7R*)-7-(3,4-dichlorophenyl)-1,4-oxazepan-6-yl]methanol monohydrochloride (retention time long)], the “inhibitory rate (%)” value in experiment [1] (compound 1 μM) is recorded as 98%; in experiment [2], 41%; in experiment [3], 87%.
As for `OC[C@@H]1CNCCO[C@H]1c1ccc(Cl)c(Cl)c1` [Example 72, [(6S,7R)-7-(3,4-dichlorophenyl)-1,4-oxazepan-6-yl]methanol monohydrochloride], the inhibition at 1 µM in experiment [1] (setting [5]) worked out at 95%; in experiment [2] it was 41%; in experiment [3], 90%.
`OC[C@H]1CNCCO[C@@H]1c1ccc(Cl)c(Cl)c1` [Example 73, [(6R,7S)-7-(3,4-dichlorophenyl)-1,4-oxazepan-6-yl]methanol monohydrochloride]: the inhibition at 1 µM in experiment [1] (setting [5]) is 98%; in experiment [2] it was 64%; in experiment [3] it was 97%.
`O=c1[nH]c(-c2ccc(OC[C@@H]3CNCCO[C@H]3c3ccc(Cl)c(Cl)c3)nc2)no1` [Example 87, 3-(6-{[(6S,7R)-7-(3,4-dichlorophenyl)-1,4-oxazepan-6-yl]methoxy}pyridin-3-yl)-1,2,4-oxadiazol-5(4H)-one monohydrochloride]: the inhibition at 1 µM in experiment [1] (setting [4]) amounted to 108%; in experiment [2], 20%; in experiment [3], 96%.
For `CS(=O)(=O)C[C@@H]1CNCCO[C@H]1c1ccc(Cl)c(Cl)c1` [Example 92, (6R,7R)-7-(3,4-dichlorophenyl)-6-[(methylsulfonyl)methyl]-1,4-oxazepane monohydrochloride] the same measures were 96%, 86% and 97%.
For `CS(=O)(=O)C[C@H]1CNCCO[C@@H]1c1ccc(Cl)c(Cl)c1` [Example 93, (6S,7S)-7-(3,4-dichlorophenyl)-6-[(methylsulfonyl)methyl]-1,4-oxazepane monohydrochloride], the inhibition at 1 µM came out at 96% in experiment [1] (setting [4]), 96% in experiment [2] and 97% in experiment [3].
Consider `CC(=O)N(C)C[C@@H]1CNCCO[C@H]1c1ccc(Cl)c(Cl)c1` [Example 99, N-{[(6S,7R)-7-(3,4-dichlorophenyl)-1,4-oxazepan-6-yl]methyl}-N-methylacetamide monohydrochloride], for which the inhibition at 1 µM was determined as 98% in experiment [1] (setting [4]), 94% in experiment [2] and 99% in experiment [3].
Taken in the same sequence, the figures for `CS(=O)(=O)CC(=O)NC[C@@H]1CNCCO[C@H]1c1ccc(Cl)c(Cl)c1` [Example 114, N-{[(6S,7R)-7-(3,4-dichlorophenyl)-1,4-oxazepan-6-yl]methyl}-2-(methylsulfonyl)acetamide monohydrochloride] were 99%, 59% and 94%.
For `CS(=O)(=O)CC(=O)NC[C@H]1CNCCO[C@@H]1c1ccc(Cl)c(Cl)c1` [Example 115, N-{[(6R,7S)-7-(3,4-dichlorophenyl)-1,4-oxazepan-6-yl]methyl}-2-(methylsulfonyl)acetamide monohydrochloride] the same measures were 98%, 66% and 99%.
Taken in the same sequence, the figures for `O=C(NC[C@@H]1CNCCO[C@H]1c1ccc(Cl)c(Cl)c1)c1ccccc1` [Example 126, N-{[(6S,7R)-7-(3,4-dichlorophenyl)-1,4-oxazepan-6-yl]methyl}benzamide monohydrochloride] were 103%, 27% and 97%.
Regarding `O=C(NC[C@@H]1CNCCO[C@H]1c1ccc(Cl)c(Cl)c1)c1cccc(-c2noc(=O)[nH]2)c1` [Example 142, N-{[(6S,7R)-7-(3,4-dichlorophenyl)-1,4-oxazepan-6-yl]methyl}-3-(5-oxo-4,5-dihydro-1,2,4-oxadiazol-3-yl)benzamide monohydrochloride], the results for the inhibition at 1 µM in experiment [1] (setting [4]), in experiment [2] and in experiment [3] were 100%, 4% and 95%, respectively.
Turning to `O=C(NC[C@@H]1CNCCO[C@H]1c1ccc(Cl)c(Cl)c1)c1cc(-c2noc(=O)[nH]2)ccn1` [Example 146, N-{[(6S,7R)-7-(3,4-dichlorophenyl)-1,4-oxazepan-6-yl]methyl}-4-(5-oxo-4,5-dihydro-1,2,4-oxadiazol-3-yl)pyridine-2-carboxamide monohydrochloride], the inhibition at 1 µM was 101% in experiment [1] (setting [4]), 47% in experiment [2] and 100% in experiment [3].
Turning to `NC(=O)NC[C@@H]1CNCCO[C@H]1c1ccc(Cl)c(Cl)c1` [Example 152, 1-{[(6S,7R)-7-(3,4-dichlorophenyl)-1,4-oxazepan-6-yl]methyl}urea monofumarate], the values for the inhibition at 1 µM in experiment [1] (setting [5]), in experiment [2] and in experiment [3] were 95%, 59% and 89%, respectively.
For `NC(=O)NC[C@H]1CNCCO[C@@H]1c1ccc(Cl)c(Cl)c1` [Example 153, 1-{[(6R,7S)-7-(3,4-dichlorophenyl)-1,4-oxazepan-6-yl]methyl}urea monofumarate] the same measures were 95%, 49% and 93%.
Take `CNC(=O)N(CCO)C[C@@H]1CNCCO[C@H]1c1ccc(Cl)c(Cl)c1` [Example 160, 1-{[(6S,7R)-7-(3,4-dichlorophenyl)-1,4-oxazepan-6-yl]methyl}-1-(2-hydroxyethyl)-3-methylurea monohydrochloride]: the inhibition at 1 µM was determined as 101% in experiment [1] (setting [4]), 99% in experiment [2] and 99% in experiment [3].
Take `O=c1nc(-c2ccccc2S(=O)(=O)C[C@@H]2CNCCO[C@H]2c2ccc(Cl)c(Cl)c2)[nH]o1` [Example 167, 3-[2-({[(6R,7R)-7-(3,4-dichlorophenyl)-1,4-oxazepan-6-yl]methyl}sulfonyl)phenyl]-1,2,4-oxadiazol-5(2H)-one monohydrochloride]: the inhibition at 1 µM came out at 103% in experiment [1] (setting [4]), 88% in experiment [2] and 93% in experiment [3].
Taken in the same sequence, the figures for `O=C(O)c1cccnc1NC[C@@H]1CNCCO[C@H]1c1ccc(Cl)c(Cl)c1` [Example 176, 2-({[(6S,7R)-7-(3,4-dichlorophenyl)-1,4-oxazepan-6-yl]methyl}amino)pyridine-3-carboxylic acid monohydrochloride] were 101%, 20% and 80%.
For `O=C(O)c1ccnn1C[C@@H]1CNCCO[C@H]1c1ccc(Cl)c(Cl)c1` [Example 181, 1-{[(6S,7R)-7-(3,4-dichlorophenyl)-1,4-oxazepan-6-yl]methyl}-1H-pyraole-5-carboxylic acid monohydrochloride] the same measures were 100%, 39% and 87%.
